Among the data in ChEMBL document CHEMBL2062480, “Semi-synthesis and anti-tumor evaluation of novel 25-hydroxyprotopanaxadiol derivatives” (Eur J Med Chem, 2012) are IC50, viability and Activity values, retold here.

SMILES strings stand for the structures. Bounds are passed on as bounds.

The test system of one assay is A549. Description: Antiproliferative activity against human A549 cells after 48 hrs by MTT assay. It is filed as functional, cell-based. The conditions noted are these: A549, 48 h.
Assay [1] has as its system MCF7. The assay is described as follows: Antiproliferative activity against human MCF7 cells after 48 hrs by MTT assay. It is filed as functional, cell-based. To be noted: for IC50: MCF7, 48 h.
A further assay deals with LoVo. The assay is described as follows: Antiproliferative activity against human LoVo cells after 48 hrs by MTT assay. It is filed as functional, cell-based. (In general: Tetrazolium assays rely on reduction of a dye to a coloured formazan, in cell work by metabolically active cells.)
Assay [2] in a line: Antiproliferative activity against human IOSE-144 cells after 48 hrs by MTT assay. It is filed as cell-based. To be noted: IOSE-144, 48 h.
Assay [3] concerns MCF7. Description: Antiproliferative activity against human MCF7 cells assessed as cell viability at 30 uM after 48 hrs by MTT assay. To be noted: MCF7, 48 h, read-out: Activity. It is filed as functional.

Broadly, the IC50 is the concentration that gives 50% inhibition. As for `CCCCCCC(=O)O[C@H]1CC[C@]2(C)[C@H]3C[C@@H](O)[C@@H]4[C@@H]([C@](C)(O)CCCC(C)(C)O)CC[C@@]4(C)[C@]3(C)CC[C@H]2C1(C)C`, the IC50 in the assay on A549 is 16.8 µM; in the assay on MCF7 [1] it was 33.7 µM; in the assay on LoVo it was above 50 µM; in assay [2] it was above 100 µM.
The corresponding values for `CCCCCCCCCC(=O)O[C@H]1CC[C@]2(C)[C@H]3C[C@@H](O)[C@@H]4[C@@H]([C@](C)(O)CCCC(C)(C)O)CC[C@@]4(C)[C@]3(C)CC[C@H]2C1(C)C` are above 100 µM, above 100 µM, above 50 µM and above 100 µM.
The corresponding values for `CCCCCCCCCCCC(=O)O[C@@H]1C[C@@H]2[C@@]3(C)CC[C@H](O)C(C)(C)[C@@H]3CC[C@@]2(C)[C@]2(C)CC[C@H]([C@](C)(O)CCCC(C)(C)O)[C@@H]12` are above 100 µM, above 100 µM, above 50 µM and above 100 µM.
As to `CC(C)(O)CCC[C@@](C)(O)[C@H]1CC[C@]2(C)[C@@H]1[C@H](O)C[C@@H]1[C@@]3(C)CC[C@H](O)C(C)(C)[C@@H]3CC[C@]12C`, the 50% inhibitory concentration (IC50) in the assay with A549 was 34.2 µM; with MCF7 [1], 48.9 µM; in the assay with LoVo, 45.2 µM; in assay [2], above 100 µM. Moreover, the viability at 30 µM in the assay on MCF7 [3] is 66.3%.
For `CCCCCCCCCCCCCCCCCC(=O)O[C@@H]1C[C@@H]2[C@@]3(C)CC[C@H](O)C(C)(C)[C@@H]3CC[C@@]2(C)[C@]2(C)CC[C@H]([C@](C)(O)CCCC(C)(C)O)[C@@H]12`, the IC50 (in the assay with A549; in the assay with MCF7 [1]; with LoVo; in assay [2]) was above 100 µM each time.
`CC(=O)O[C@H]1CC[C@]2(C)[C@H]3C[C@@H](O)[C@@H]4[C@@H]([C@](C)(O)CCCC(C)(C)O)CC[C@@]4(C)[C@]3(C)CC[C@H]2C1(C)C`: the IC50 in the assay on A549 was 15.7 µM; in the assay on MCF7 [1], 15.2 µM; with LoVo, above 50 µM; in assay [2], above 100 µM. Besides, the Activity result in the assay with MCF7 [1] is “Dose-dependent effect”.
The corresponding values for `CCC(=O)O[C@H]1CC[C@]2(C)[C@H]3C[C@@H](O)[C@@H]4[C@@H]([C@](C)(O)CCCC(C)(C)O)CC[C@@]4(C)[C@]3(C)CC[C@H]2C1(C)C` are 43.6 µM, 12.5 µM, above 50 µM, above 100 µM and “Dose-dependent effect”.
For `CCCCCCCCCC(=O)O[C@@H]1C[C@@H]2[C@@]3(C)CC[C@H](O)C(C)(C)[C@@H]3CC[C@@]2(C)[C@]2(C)CC[C@H]([C@](C)(O)CCCC(C)(C)O)[C@@H]12`, the half-maximal inhibitory concentration (IC50) in the assay on A549 was 29.6 µM; in the assay on MCF7 [1] it was 26.2 µM; with LoVo, above 50 µM; in assay [2], above 100 µM.
In the same order, the values of `CCCCCCCCCCCCCCCC(=O)O[C@@H]1C[C@@H]2[C@@]3(C)CC[C@H](O)C(C)(C)[C@@H]3CC[C@@]2(C)[C@]2(C)CC[C@H]([C@](C)(O)CCCC(C)(C)O)[C@@H]12` are above 50 µM, above 50 µM, above 100 µM and above 100 µM.
Take `CCCCC(=O)O[C@H]1CC[C@]2(C)[C@H]3C[C@@H](OC(=O)CCCC)[C@@H]4[C@@H]([C@](C)(O)CCCC(C)(C)O)CC[C@@]4(C)[C@]3(C)CC[C@H]2C1(C)C`: the 50% inhibitory concentration (IC50) with A549 is 49.9 µM; in the assay with MCF7 [1], above 50 µM; in the assay on LoVo, above 50 µM; in assay [2], above 100 µM.
For the compound `CCCCCCCCC(=O)O[C@H]1CC[C@]2(C)[C@H]3C[C@@H](O)[C@@H]4[C@@H]([C@](C)(O)CCCC(C)(C)O)CC[C@@]4(C)[C@]3(C)CC[C@H]2C1(C)C`, the IC50 with A549 is above 50 µM; in the assay with MCF7 [1], above 50 µM; in the assay on LoVo, above 50 µM; in assay [2], above 100 µM.
Turning to `CCC(=O)O[C@H]1CC[C@]2(C)[C@H]3C[C@@H](OC(=O)CC)[C@@H]4[C@@H]([C@](C)(O)CCCC(C)(C)O)CC[C@@]4(C)[C@]3(C)CC[C@H]2C1(C)C`, the 50% inhibitory concentration (IC50) in the assay on A549 was 14.9 µM; with MCF7 [1], 20.6 µM; in the assay with LoVo it was 45.3 µM; in assay [2] it was above 100 µM.
For the compound `CC(C)(O)CCC[C@@](C)(O)[C@H]1CC[C@]2(C)[C@@H]1[C@H](OC=O)C[C@@H]1[C@@]3(C)CC[C@H](O)C(C)(C)[C@@H]3CC[C@]12C`, the IC50 in the assay with A549 was 15.9 µM; in the assay on MCF7 [1], 11.6 µM; in the assay with LoVo it was 49.6 µM; in assay [2], above 100 µM. Further, in the assay with MCF7 [3], the viability at 30 µM was found to be 15.1%.
As to `CC(C)(O)CCC[C@@](C)(O)[C@H]1CC[C@]2(C)[C@@H]1[C@H](O)C[C@@H]1[C@@]3(C)CC[C@H](OC=O)C(C)(C)[C@@H]3CC[C@]12C`, the half-maximal inhibitory concentration (IC50) with A549 was 39.2 µM; in the assay with MCF7 [1] it was 11.5 µM; with LoVo it was above 50 µM; in assay [2], above 100 µM. Also, in the assay on MCF7 [1], the Activity entry is “Dose-dependent effect”.
`CCCCCCCCCCCCCC(=O)O[C@H]1CC[C@]2(C)[C@H]3C[C@@H](O)[C@@H]4[C@@H]([C@](C)(O)CCCC(C)(C)O)CC[C@@]4(C)[C@]3(C)CC[C@H]2C1(C)C`: the concentration for half-maximal inhibition (IC50) (in the assay with A549; with MCF7 [1]; in the assay with LoVo; in assay [2]) was above 100 µM each time.
With `CCCCCCCCCCCC(=O)O[C@H]1CC[C@]2(C)[C@H]3C[C@@H](O)[C@@H]4[C@@H]([C@](C)(O)CCCC(C)(C)O)CC[C@@]4(C)[C@]3(C)CC[C@H]2C1(C)C`, the IC50 (in the assay on A549; in the assay with MCF7 [1]; in the assay on LoVo; in assay [2]) was above 100 µM each time.
On to `CCCCCCCCCCCCCCCCCC(=O)O[C@H]1CC[C@]2(C)[C@H]3C[C@@H](O)[C@@H]4[C@@H]([C@](C)(O)CCCC(C)(C)O)CC[C@@]4(C)[C@]3(C)CC[C@H]2C1(C)C`, for which the IC50 (with A549; with MCF7 [1]; with LoVo; in assay [2]) was above 100 µM each time.
Regarding `CCCCCCCC/C=C\CCCCCCCC(=O)O[C@H]1CC[C@]2(C)[C@H]3C[C@@H](O)[C@@H]4[C@@H]([C@](C)(O)CCCC(C)(C)O)CC[C@@]4(C)[C@]3(C)CC[C@H]2C1(C)C`, the IC50 (in the assay on A549; in the assay on MCF7 [1]; with LoVo; in assay [2]) was above 100 µM in each case.
`CCCCC(=O)O[C@H]1CC[C@]2(C)[C@H]3C[C@@H](O)[C@@H]4[C@@H]([C@](C)(O)CCCC(C)(C)O)CC[C@@]4(C)[C@]3(C)CC[C@H]2C1(C)C`: the IC50 with A549 was above 50 µM; in the assay with MCF7 [1] it was above 50 µM; in the assay on LoVo, above 50 µM; in assay [2], above 100 µM.
In the case of `CCCCCCCCCCCCCC(=O)O[C@@H]1C[C@@H]2[C@@]3(C)CC[C@H](O)C(C)(C)[C@@H]3CC[C@@]2(C)[C@]2(C)CC[C@H]([C@](C)(O)CCCC(C)(C)O)[C@@H]12`, the IC50 (with A549; with MCF7 [1]; with LoVo; in assay [2]) was above 100 µM throughout.
Turning to `CCCCCC(=O)O[C@H]1CC[C@]2(C)[C@H]3C[C@@H](O)[C@@H]4[C@@H]([C@](C)(O)CCCC(C)(C)O)CC[C@@]4(C)[C@]3(C)CC[C@H]2C1(C)C`, the half-inhibitory concentration (IC50) in the assay with A549 is 26.2 µM; in the assay with MCF7 [1], above 50 µM; with LoVo, above 50 µM; in assay [2], above 100 µM.
In the case of `CCCCCCCC/C=C\CCCCCCCC(=O)O[C@@H]1C[C@@H]2[C@@]3(C)CC[C@H](O)C(C)(C)[C@@H]3CC[C@@]2(C)[C@]2(C)CC[C@H]([C@](C)(O)CCCC(C)(C)O)[C@@H]12`, the IC50 (in the assay on A549; in the assay on MCF7 [1]; in the assay with LoVo; in assay [2]) was above 100 µM each time.
As for `CCCC(=O)O[C@H]1CC[C@]2(C)[C@H]3C[C@@H](O)[C@@H]4[C@@H]([C@](C)(O)CCCC(C)(C)O)CC[C@@]4(C)[C@]3(C)CC[C@H]2C1(C)C`, the IC50 in the assay with A549 was 35.5 µM; with MCF7 [1], 42.8 µM; in the assay on LoVo, above 50 µM; in assay [2] it was above 100 µM.
The corresponding values for `CC(=O)O[C@H]1CC[C@]2(C)[C@H]3C[C@@H](OC(C)=O)[C@@H]4[C@@H]([C@](C)(O)CCCC(C)(C)O)CC[C@@]4(C)[C@]3(C)CC[C@H]2C1(C)C` are 14.8 µM, 25.3 µM, 43.4 µM and above 100 µM.
On to `CCCCCCCCCCCCCCCC(=O)O[C@H]1CC[C@]2(C)[C@H]3C[C@@H](O)[C@@H]4[C@@H]([C@](C)(O)CCCC(C)(C)O)CC[C@@]4(C)[C@]3(C)CC[C@H]2C1(C)C`, for which the IC50 (with A549; with MCF7 [1]; with LoVo; in assay [2]) was above 100 µM in each case.
For `CCCCCCC(=O)O[C@@H]1C[C@@H]2[C@@]3(C)CC[C@H](O)C(C)(C)[C@@H]3CC[C@@]2(C)[C@]2(C)CC[C@H]([C@](C)(O)CCCC(C)(C)O)[C@@H]12`, the 50% inhibitory concentration (IC50) was 16.5 µM in the assay with A549, 16.3 µM in the assay with MCF7 [1], 48.1 µM in the assay on LoVo and above 100 µM in assay [2].
In the same order, the values of `CCCCCCCC(=O)O[C@H]1CC[C@]2(C)[C@H]3C[C@@H](O)[C@@H]4[C@@H]([C@](C)(O)CCCC(C)(C)O)CC[C@@]4(C)[C@]3(C)CC[C@H]2C1(C)C` are 46.7 µM, above 100 µM, above 50 µM and above 100 µM.
